Measured values as given in ChEMBL document CHEMBL4732172, “Discovery, semisynthesis and neurite outgrowth-promoting activity of novel merrillianone/cycloparviforalone based esters as neurotrophic agents” (Bioorg Med Chem Lett, 2021).
Calls of active or inactive are those of the source. The calls are words filed in the database; no cut-off is given here.

Key:
PC-12 [1] = assay: Neurotrophic activity in rat PC-12 cells assessed as neurite outgrowth promoting activity in NGF-induced cells by measuring differentiation rate at 10 […] (reference value: 4.24 +/- 0.03 %); assay type: functional; parameters: concentration or dose not given beside the values
PC-12 [2] = assay: Induction of neurite outgrowth in NGF-induced rat PC-12 cells assessed as increase in average neurite length at 10 uM in presence of by methylene blue staining based light microscopy; assay type: functional, cell-based
PC-12 [3] = assay: Neurotrophic activity in rat PC-12 cells assessed as neurite outgrowth promoting activity in NGF-induced cells by measuring differentiation rate at 10 […] relative to merrillianone; assay type: functional
PC-12 [4] = assay: Neurotrophic activity in rat PC-12 cells assessed as neurite outgrowth promoting activity in NGF-induced cells by measuring differentiation rate at 10 […] relative to cycloparviforalone; assay type: functional
[5] = Hydrolytic stability in phosphate buffer with pH 3.5 assessed as retention time measured after 2 hrs by HPLC analysis; assay type: physicochemical; conditions: pH 3.5, 2 h
[6] = Hydrolytic stability in phosphate buffer with pH 3.5 assessed as retention time measured after 4 hrs by HPLC analysis; assay type: physicochemical; conditions: pH 3.5, 4 h
[7] = Hydrolytic stability in phosphate buffer with pH 3.5 assessed as retention time measured after 6 hrs by HPLC analysis; assay type: physicochemical; conditions: pH 3.5, 6 h

SMILES | Activity (PC-12 [1]) [%] | also measured
C[C@@H]1CC=C2[C@]13C[C@@]1(O)OC(OC[C@@]2(C)[C@@]1(C)O)[C@@H]3OC(=O)CCc1cccc(Br)c1 | 5.26 | –
C[C@@H]1CC=C2[C@]13C[C@@]1(O)OC(OC[C@@]2(C)[C@@]1(C)O)[C@@H]3O | 5.31 | –
C[C@@H]1CC[C@@]2(O)[C@]13C[C@@]1(OC(=O)CCc4ccc(F)cc4)OC(OC[C@@]2(C)[C@@]1(C)O)[C@@H]3O | 10.41 | Activity (PC-12 [2]): Active; fold change (FC) (PC-12 [3]): 2; fold change (FC) (PC-12 [4]): 2
C[C@@H]1CC=C2[C@]13C[C@@]1(O)OC(OC[C@@]2(C)[C@@]1(C)O)[C@@H]3OC(=O)CCc1ccc(Cl)cc1 | 6.05 | –
C/C=C/C=C/C(=O)O[C@H]1C2OC[C@]3(C)C4=CC[C@@H](C)[C@@]41C[C@@](O)(O2)[C@]3(C)O | 11.11 | Activity (PC-12 [2]): Active; fold change (FC) (PC-12 [3]): 2; fold change (FC) (PC-12 [4]): 2
C[C@@H]1CC=C2[C@]13C[C@@]1(O)OC(OC[C@@]2(C)[C@@]1(C)O)[C@@H]3OC(=O)CCC(=O)c1ccccc1 | 7.21 | –
C[C@@H]1CC[C@@]2(O)[C@]13C[C@@]1(OC(=O)Cc4ccc(Br)cc4)OC(OC[C@@]2(C)[C@@]1(C)O)[C@@H]3O | 6.12 | –
C[C@@H]1CC[C@@]2(O)[C@]13C[C@@]1(OC(=O)CCc4cccc(F)c4)OC(OC[C@@]2(C)[C@@]1(C)O)[C@@H]3O | 6.35 | –
C[C@@H]1CC[C@@]2(O)[C@]13C[C@@]1(OC(=O)Cc4cccc(Cl)c4)OC(OC[C@@]2(C)[C@@]1(C)O)[C@@H]3O | 7.13 | –
C[C@@H]1CC[C@@]2(O)[C@]13C[C@@]1(OC(=O)CCc4ccc(Br)cc4)OC(OC[C@@]2(C)[C@@]1(C)O)[C@@H]3O | 6.15 | –
C[C@@H]1CC[C@@]2(O)[C@]13C[C@@]1(OC(=O)/C=C/c4ccccc4)OC(OC[C@@]2(C)[C@@]1(C)O)[C@@H]3O | 5.03 | –
C[C@@H]1CC=C2[C@]13C[C@@]1(O)OC(OC[C@@]2(C)[C@@]1(C)O)[C@@H]3OC(=O)CCc1cccc(F)c1 | 4.97 | –
C[C@@H]1CC[C@@]2(O)[C@]13C[C@@]1(OC(=O)Cc4ccc(F)cc4)OC(OC[C@@]2(C)[C@@]1(C)O)[C@@H]3O | 5.74 | –
C[C@@H]1CC[C@@]2(O)[C@]13C[C@@]1(OC(=O)CCc4cccc(Br)c4)OC(OC[C@@]2(C)[C@@]1(C)O)[C@@H]3O | 5.26 | –
C[C@@H]1CC=C2[C@]13C[C@@]1(O)OC(OC[C@@]2(C)[C@@]1(C)O)[C@@H]3OC(=O)CCc1cccc(Cl)c1 | 5.6 | –
C[C@@H]1CC[C@@]2(O)[C@]13C[C@@]1(OC(=O)Cc4ccc(Cl)cc4)OC(OC[C@@]2(C)[C@@]1(C)O)[C@@H]3O | 4.9 | –
C[C@@H]1CC=C2[C@]13C[C@@]1(O)OC(OC[C@@]2(C)[C@@]1(C)O)[C@@H]3OC(=O)CCc1ccc(F)cc1 | 5.43 | –
C[C@@H]1CC[C@@]2(O)[C@]13C[C@@]1(OC(=O)Cc4ccc5ccccc5c4)OC(OC[C@@]2(C)[C@@]1(C)O)[C@@H]3O | 4.76 | Retention_time [5]: 15.77 min; Retention_time [6]: 15.97 min; Retention_time [7]: 16.154 min
C[C@@H]1CC=C2[C@]13C[C@@]1(O)OC(OC[C@@]2(C)[C@@]1(C)O)[C@@H]3OC(=O)CCc1ccc(Br)cc1 | 6.03 | –
C[C@@H]1CC[C@@]2(O)[C@]13C[C@@]1(OC(=O)Cc4cccc(F)c4)OC(OC[C@@]2(C)[C@@]1(C)O)[C@@H]3O | 6.52 | –
C[C@@H]1CC[C@@]2(O)[C@]13C[C@@]1(OC(=O)CCc4cccc(Cl)c4)OC(OC[C@@]2(C)[C@@]1(C)O)[C@@H]3O | 4.57 | –
C[C@@H]1CC[C@@]2(O)[C@]13C[C@@]1(OC(=O)Cc4cccc(Br)c4)OC(OC[C@@]2(C)[C@@]1(C)O)[C@@H]3O | 7.35 | –
C/C=C/C=C/C(=O)O[C@]12C[C@]34[C@H](C)CC[C@]3(O)[C@@](C)(COC(O1)[C@@H]4O)[C@@]2(C)O | 11.74 | Activity (PC-12 [2]): Active; fold change (FC) (PC-12 [3]): 2; fold change (FC) (PC-12 [4]): 2
C[C@@H]1CC[C@@]2(O)[C@]13C[C@@]1(OC(=O)CCC(=O)c4ccccc4)OC(OC[C@@]2(C)[C@@]1(C)O)[C@@H]3O | 5.69 | –
C[C@@H]1CC[C@@]2(O)[C@]13C[C@@]1(OC(=O)CCc4ccc(Cl)cc4)OC(OC[C@@]2(C)[C@@]1(C)O)[C@@H]3O | 5.87 | –
C[C@@H]1CC[C@@]2(O)[C@]13C[C@@]1(O)OC(OC[C@@]2(C)[C@@]1(C)O)[C@@H]3O | 5.75 | –
C[C@@H]1CC=C2[C@]13C[C@@]1(O)OC(OC[C@@]2(C)[C@@]1(C)O)[C@@H]3OC(=O)CCc1ccccc1 | 5.81 | –
